Drawing on ChEMBL document CHEMBL4130613, “Identification and Proposed Relative and Absolute Configurations of Niphimycins C-E from the Marine-Derived Streptomyces sp. IMB7-145 by Genomic Analysis” (J Nat Prod, 2018), this text covers MIC for two compounds.

Values after ≈ are worked out from the molar mass of the structure shown.

Common to all, as to type: functional
The test system of experiment [1] is Mycobacterium tuberculosis. The experiment can be described thus: Antibacterial activity against isonizaid/rifampicin-resistant Mycobacterium tuberculosis isolate FJ05120 after 18 hrs by agar dilution method. As to conditions: isolate FJ05120, 18 h. On the technique in general: In agar dilution, organisms are placed on agar that contains the substance at set levels.

The subject of experiment [2] is Mycobacterium tuberculosis. Briefly: Antibacterial activity against isonizaid/rifampicin/streptomycin/ethambutol-resistant Mycobacterium tuberculosis isolate FJ05436 after 18 hrs by agar dilution method. As to conditions: isolate FJ05436, 18 h.
In experiment [3] the test system is Mycobacterium tuberculosis. Briefly: Antibacterial activity against isonizaid/rifampicin/streptomycin/ethambutol-resistant Mycobacterium tuberculosis isolate FJ05195 after 18 hrs by agar dilution method. As to conditions: isolate FJ05195, 18 h.

Turning to `CNC(=N)NCCC/C=C/CCC[C@H](C)C[C@H](C)[C@H]1OC(=O)[C@H](C)[C@H](O)/C=C/[C@H](C)[C@H](O)C[C@H](O)[C@H](C)[C@@H](O)CC[C@H](C)[C@H](O)C[C@]2(O)O[C@H](C[C@@H](OC(=O)CC(=O)O)C[C@H](O)C[C@@H](O)[C@H](C)[C@H](O)/C=C/C=C/[C@@H]1C)C[C@H](O)[C@H]2O`, the MIC – broadly, the least concentration at which growth counts as inhibited – in experiment [1] lay within 4 to 16 µg/mL (≈ 3.5 to 14 µM); in experiment [2] it was 4 to 32 µg/mL (≈ 3.5 to 28 µM); in experiment [3], 4 to 32 µg/mL (≈ 3.5 to 28 µM).
On to `CNC(=N)NCCC/C=C/CCC[C@H](C)C[C@H](C)[C@H]1OC(=O)[C@H](C)[C@H](O)/C=C/[C@H](C)[C@H](O)C[C@H](O)[C@H](C)[C@@H](O)CC[C@H](C)[C@H](O)C[C@]2(O)O[C@H](C[C@@H](O)C[C@H](OC(=O)CC(=O)O)C[C@@H](O)[C@H](C)[C@H](O)/C=C/C=C/[C@@H]1C)C[C@H](O)[C@H]2O`, for which the MIC in experiment [1] was 4 to 16 µg/mL (≈ 3.5 to 14 µM); in experiment [2], 4 to 32 µg/mL (≈ 3.5 to 28 µM); in experiment [3] it was 4 to 32 µg/mL (≈ 3.5 to 28 µM).
